Data from paper PMC6478789, “A chemical toolbox for the study of bromodomains and epigenetic signaling” (Nature Communications, 2019).
Where two headings read alike, the source gives them in different places.

How the values were obtained:
BRD4(2) = BRD4(2) (Homo sapiens, UniProt O60885); experiment: BROMOscan ligand-binding assay
Text: (§1) BROMOscan is a binding assay based on the well-known KINOMEscan technology. This assay measures the binding of a DNA-tagged bromodomain to an immobilized BRD ligand. If an inhibitor is present, it will compete with the bromodomain binding to the immobilized ligand, resulting in reduction of a quantitative PCR (qPCR) signal in a dose-dependent manner.

BRDT(2) = BRDT(2) (Homo sapiens, UniProt Q58F21); experiment: BROMOscan ligand-binding assay
Text: as §1

TRIM24 = target: T1, TRIM24 (Homo sapiens, UniProt O15164); experiment: BROMOscan ligand-binding assay
T1 sequence (O15164 899-1004 limits assumed): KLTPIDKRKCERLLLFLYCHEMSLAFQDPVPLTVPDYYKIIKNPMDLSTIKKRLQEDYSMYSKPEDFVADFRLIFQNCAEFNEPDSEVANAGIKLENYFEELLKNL
Text: as §1

BRD9 = target: T2, BRD9 (Homo sapiens, UniProt Q9H8M2); experiment: BROMOscan ligand-binding assay
T2 sequence (Q9H8M2 136-240 limits assumed): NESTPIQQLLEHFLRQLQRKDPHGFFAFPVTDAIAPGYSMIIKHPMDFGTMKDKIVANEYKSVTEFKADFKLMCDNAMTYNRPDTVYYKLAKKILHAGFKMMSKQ
Text: as §1

BRPF1 = target: T3, BRPF1 (Homo sapiens, UniProt P55201); experiment: BROMOscan ligand-binding assay
T3 sequence (P55201 628-732 limits assumed): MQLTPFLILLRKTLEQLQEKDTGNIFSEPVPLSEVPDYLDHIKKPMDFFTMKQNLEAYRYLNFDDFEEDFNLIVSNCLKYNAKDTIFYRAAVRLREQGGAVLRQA
Text: as §1

TAF1(2) = target: T4, TAF1(2) (Homo sapiens, UniProt P21675); experiment: BROMOscan ligand-binding assay
T4 sequence (P21675 1519-1628 limits assumed): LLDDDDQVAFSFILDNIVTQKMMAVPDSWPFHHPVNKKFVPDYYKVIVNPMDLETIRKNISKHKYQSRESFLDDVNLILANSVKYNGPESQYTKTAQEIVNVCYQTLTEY
Text: as §1

CECR2 = CECR2 (Homo sapiens, UniProt Q9BXF3); experiment: BROMOscan ligand-binding assay
Sequence of CECR2 (Q9BXF3 434-538 limits assumed): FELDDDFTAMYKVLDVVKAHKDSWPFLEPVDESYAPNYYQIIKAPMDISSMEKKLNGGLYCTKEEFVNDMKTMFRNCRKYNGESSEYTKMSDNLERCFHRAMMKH
Text: as §1

PBRM1(2) = PBRM1(2) (Homo sapiens, UniProt Q86U86); experiment: BROMOscan ligand-binding assay
Sequence of PBRM1(2) (Q86U86 177-287 limits assumed): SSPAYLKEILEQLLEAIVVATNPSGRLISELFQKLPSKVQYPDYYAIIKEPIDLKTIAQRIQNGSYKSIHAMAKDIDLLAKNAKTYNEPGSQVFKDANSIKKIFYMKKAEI
Text: as §1

ATAD2B = target: T5, ATAD2B (Homo sapiens, UniProt Q9ULI0); experiment: BROMOscan ligand-binding assay
T5 sequence (Q9ULI0 951-1066 limits assumed): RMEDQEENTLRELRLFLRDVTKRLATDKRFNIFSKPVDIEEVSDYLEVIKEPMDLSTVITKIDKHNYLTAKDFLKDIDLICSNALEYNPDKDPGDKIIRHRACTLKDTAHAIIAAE
Text: as §1

CREBBP = CREBBP (Homo sapiens, UniProt Q92793); experiment: BROMOscan ligand-binding assay
Sequence of CREBBP (Q92793 1085-1192 limits assumed): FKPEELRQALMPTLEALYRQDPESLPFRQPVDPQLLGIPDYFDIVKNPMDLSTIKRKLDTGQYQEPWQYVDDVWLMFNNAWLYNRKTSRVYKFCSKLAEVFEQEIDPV
Text: as §1

BRPF3 = target: T6, BRPF3 (Homo sapiens, UniProt Q9ULD4); experiment: BROMOscan ligand-binding assay
T6 sequence (Q9ULD4 589-693 limits assumed): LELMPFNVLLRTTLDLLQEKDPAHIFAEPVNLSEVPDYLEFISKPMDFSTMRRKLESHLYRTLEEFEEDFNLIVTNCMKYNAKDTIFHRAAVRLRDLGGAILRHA
Text: as §1

BRD4(fl) = BRD4(fl) (Homo sapiens, UniProt O60885); experiment: BROMOscan ligand-binding assay
Text: as §1

MYST3 = MYST3 (Homo sapiens, UniProt Q92794); experiment: Histone acetyltransferase (HAT) activity assay; assay type: biochemical;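 further: selectivity screen of bromodomain probe compounds across a panel of histone acetyltransferases, read out as enzyme activity in %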
Sequence of MYST3 (Q92794 whole entry, species assumed): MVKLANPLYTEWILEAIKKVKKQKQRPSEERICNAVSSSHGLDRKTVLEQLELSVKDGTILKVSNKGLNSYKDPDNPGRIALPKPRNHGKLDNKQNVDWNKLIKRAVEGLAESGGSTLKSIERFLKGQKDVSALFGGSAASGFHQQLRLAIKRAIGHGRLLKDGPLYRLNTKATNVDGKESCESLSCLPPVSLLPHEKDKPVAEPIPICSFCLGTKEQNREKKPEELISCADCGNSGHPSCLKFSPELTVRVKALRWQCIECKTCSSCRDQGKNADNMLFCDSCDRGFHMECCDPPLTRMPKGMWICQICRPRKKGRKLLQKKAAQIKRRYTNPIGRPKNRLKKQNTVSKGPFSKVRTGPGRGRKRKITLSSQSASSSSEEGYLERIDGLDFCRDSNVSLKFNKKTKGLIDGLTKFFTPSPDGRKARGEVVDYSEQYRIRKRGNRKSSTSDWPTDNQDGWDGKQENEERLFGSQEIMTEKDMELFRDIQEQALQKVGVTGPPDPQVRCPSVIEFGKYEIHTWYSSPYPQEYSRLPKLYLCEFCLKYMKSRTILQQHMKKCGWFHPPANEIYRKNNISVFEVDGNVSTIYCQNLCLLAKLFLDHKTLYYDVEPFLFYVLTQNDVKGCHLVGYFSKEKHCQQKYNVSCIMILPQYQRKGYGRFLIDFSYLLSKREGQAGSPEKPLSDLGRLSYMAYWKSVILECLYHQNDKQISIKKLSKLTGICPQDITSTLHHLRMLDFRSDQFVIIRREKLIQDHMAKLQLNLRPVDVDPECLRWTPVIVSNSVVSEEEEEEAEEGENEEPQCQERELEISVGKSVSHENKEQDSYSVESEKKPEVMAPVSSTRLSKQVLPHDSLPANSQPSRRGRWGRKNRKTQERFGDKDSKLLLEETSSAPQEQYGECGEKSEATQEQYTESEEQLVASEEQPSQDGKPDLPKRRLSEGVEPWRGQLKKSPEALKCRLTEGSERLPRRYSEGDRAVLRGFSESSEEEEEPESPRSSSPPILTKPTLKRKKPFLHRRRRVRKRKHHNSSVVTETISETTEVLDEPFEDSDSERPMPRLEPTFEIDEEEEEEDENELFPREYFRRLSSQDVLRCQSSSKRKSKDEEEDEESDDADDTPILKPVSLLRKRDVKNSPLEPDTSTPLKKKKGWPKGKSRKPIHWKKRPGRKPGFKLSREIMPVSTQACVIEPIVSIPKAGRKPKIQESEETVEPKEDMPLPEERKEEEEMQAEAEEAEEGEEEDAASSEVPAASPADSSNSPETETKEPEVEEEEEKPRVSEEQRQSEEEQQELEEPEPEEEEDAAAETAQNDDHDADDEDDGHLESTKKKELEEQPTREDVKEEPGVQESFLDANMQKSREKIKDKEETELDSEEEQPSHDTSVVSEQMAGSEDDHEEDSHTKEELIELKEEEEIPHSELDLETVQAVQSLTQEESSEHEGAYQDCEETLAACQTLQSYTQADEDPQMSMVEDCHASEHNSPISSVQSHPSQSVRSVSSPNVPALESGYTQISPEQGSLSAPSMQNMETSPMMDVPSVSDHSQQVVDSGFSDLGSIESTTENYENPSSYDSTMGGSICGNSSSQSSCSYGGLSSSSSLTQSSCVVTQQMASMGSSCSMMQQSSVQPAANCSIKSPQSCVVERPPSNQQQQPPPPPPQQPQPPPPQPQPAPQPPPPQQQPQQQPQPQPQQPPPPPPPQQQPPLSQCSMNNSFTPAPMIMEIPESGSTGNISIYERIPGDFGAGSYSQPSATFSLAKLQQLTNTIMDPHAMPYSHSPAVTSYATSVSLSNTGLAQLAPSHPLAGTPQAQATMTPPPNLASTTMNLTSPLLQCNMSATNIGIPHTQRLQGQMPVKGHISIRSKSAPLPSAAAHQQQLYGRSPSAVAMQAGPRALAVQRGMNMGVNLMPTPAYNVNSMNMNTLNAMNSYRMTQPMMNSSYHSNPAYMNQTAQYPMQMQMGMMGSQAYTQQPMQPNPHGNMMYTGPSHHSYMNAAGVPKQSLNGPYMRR

HAT1 = target: T7, HAT1 (Homo sapiens, UniProt O14929); experiment: Histone acetyltransferase (HAT) activity assay; assay type: biochemical;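 further: HAT selectivity screen of BRD probe compounds, enzyme activity in % measured with compound at 1 µM and 10 µM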
T7 sequence (O14929 1-419): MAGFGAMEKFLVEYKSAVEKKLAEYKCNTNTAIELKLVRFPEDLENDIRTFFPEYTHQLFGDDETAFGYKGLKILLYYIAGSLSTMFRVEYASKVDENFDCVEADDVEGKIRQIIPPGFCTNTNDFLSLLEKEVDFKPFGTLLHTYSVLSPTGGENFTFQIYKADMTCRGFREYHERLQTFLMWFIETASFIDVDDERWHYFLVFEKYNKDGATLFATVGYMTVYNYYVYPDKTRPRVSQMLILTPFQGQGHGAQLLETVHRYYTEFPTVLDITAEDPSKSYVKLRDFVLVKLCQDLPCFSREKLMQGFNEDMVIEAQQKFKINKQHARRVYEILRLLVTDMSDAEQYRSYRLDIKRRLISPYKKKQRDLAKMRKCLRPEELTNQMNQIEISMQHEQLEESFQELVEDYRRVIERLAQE

GCN5L2 = GCN5L2 (Homo sapiens, UniProt Q92830); experiment: Histone acetyltransferase (HAT) activity assay; assay type: biochemical;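 further: selectivity screen of BRD probe compounds across a panel of histone acetyltransferases, HAT activity in % with compound at 1 or 10 µM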
EP300 = EP300 (Homo sapiens, UniProt Q09472); experiment: Histone acetyltransferase (HAT) activity assay; assay type: biochemical;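 further: selectivity screen of bromodomain probe compounds against histone acetyltransferases, with enzyme activity given in percent for compounds tested at 1 and 10 µM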
Sequence of EP300 (Q09472 whole entry, species assumed): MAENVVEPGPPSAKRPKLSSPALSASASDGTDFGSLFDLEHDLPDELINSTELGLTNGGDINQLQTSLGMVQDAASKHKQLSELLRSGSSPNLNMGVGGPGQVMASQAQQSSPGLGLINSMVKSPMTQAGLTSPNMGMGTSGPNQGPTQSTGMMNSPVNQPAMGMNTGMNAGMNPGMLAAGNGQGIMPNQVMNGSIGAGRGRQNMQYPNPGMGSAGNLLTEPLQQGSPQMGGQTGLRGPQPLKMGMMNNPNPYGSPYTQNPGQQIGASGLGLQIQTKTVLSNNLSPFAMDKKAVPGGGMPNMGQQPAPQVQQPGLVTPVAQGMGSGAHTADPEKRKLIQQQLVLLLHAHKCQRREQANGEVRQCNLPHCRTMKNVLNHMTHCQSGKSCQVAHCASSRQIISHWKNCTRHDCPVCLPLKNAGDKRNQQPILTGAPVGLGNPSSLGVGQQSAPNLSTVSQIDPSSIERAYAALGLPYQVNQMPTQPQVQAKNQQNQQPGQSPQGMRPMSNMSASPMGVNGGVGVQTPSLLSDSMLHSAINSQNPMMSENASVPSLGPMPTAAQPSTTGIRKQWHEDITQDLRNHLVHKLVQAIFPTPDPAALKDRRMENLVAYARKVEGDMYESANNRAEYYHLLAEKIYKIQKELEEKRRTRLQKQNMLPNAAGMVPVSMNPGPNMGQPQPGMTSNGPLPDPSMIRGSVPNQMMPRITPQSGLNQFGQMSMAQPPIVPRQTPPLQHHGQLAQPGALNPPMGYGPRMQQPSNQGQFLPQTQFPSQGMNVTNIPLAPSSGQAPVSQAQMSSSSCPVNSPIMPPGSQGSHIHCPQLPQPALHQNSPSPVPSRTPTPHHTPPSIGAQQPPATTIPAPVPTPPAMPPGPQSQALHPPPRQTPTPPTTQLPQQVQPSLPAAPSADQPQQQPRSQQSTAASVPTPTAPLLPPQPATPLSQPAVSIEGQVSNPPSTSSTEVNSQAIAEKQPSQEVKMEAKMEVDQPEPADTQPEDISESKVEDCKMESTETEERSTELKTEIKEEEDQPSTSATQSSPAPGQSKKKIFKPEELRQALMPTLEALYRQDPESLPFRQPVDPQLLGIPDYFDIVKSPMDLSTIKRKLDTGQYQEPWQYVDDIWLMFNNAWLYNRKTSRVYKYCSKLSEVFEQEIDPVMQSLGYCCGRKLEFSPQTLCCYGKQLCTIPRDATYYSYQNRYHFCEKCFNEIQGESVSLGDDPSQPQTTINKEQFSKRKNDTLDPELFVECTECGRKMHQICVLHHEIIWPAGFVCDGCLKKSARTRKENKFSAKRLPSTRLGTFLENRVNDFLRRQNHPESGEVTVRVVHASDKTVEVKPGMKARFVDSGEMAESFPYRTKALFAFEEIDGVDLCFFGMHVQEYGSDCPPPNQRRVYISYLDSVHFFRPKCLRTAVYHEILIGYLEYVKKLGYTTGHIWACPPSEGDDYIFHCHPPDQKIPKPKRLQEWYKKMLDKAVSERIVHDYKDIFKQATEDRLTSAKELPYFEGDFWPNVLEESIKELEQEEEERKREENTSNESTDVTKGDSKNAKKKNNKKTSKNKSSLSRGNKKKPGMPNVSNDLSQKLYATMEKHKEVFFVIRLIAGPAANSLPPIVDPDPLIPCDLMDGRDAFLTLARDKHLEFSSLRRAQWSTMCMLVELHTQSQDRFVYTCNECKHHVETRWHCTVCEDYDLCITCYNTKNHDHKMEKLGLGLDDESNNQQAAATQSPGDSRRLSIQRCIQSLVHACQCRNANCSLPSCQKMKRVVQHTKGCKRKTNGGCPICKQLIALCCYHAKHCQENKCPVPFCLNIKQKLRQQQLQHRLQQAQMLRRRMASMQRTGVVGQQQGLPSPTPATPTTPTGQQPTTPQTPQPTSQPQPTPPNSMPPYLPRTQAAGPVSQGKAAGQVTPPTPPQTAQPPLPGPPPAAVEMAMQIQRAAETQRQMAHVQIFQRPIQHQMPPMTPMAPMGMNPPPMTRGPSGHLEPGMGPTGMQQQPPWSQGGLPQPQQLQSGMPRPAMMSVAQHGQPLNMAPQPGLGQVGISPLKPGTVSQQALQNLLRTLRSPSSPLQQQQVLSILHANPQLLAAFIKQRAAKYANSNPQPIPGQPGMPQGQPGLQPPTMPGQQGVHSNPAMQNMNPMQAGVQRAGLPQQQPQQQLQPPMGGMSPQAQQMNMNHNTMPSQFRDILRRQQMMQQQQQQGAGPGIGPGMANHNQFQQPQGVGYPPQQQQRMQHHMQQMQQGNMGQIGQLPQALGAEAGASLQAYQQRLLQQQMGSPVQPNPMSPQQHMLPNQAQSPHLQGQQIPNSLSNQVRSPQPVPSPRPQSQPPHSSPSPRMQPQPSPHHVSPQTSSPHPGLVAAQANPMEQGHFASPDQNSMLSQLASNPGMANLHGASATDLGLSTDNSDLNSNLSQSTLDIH

MYST1 = target: T8, MYST1 (Homo sapiens, UniProt Q9H7Z6); experiment: Histone acetyltransferase (HAT) activity assay; assay type: biochemical;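 further: selectivity screen across a panel of histone acetyltransferases, with compounds tested at 1 and 10 µM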
T8 sequence (Q9H7Z6 1-458): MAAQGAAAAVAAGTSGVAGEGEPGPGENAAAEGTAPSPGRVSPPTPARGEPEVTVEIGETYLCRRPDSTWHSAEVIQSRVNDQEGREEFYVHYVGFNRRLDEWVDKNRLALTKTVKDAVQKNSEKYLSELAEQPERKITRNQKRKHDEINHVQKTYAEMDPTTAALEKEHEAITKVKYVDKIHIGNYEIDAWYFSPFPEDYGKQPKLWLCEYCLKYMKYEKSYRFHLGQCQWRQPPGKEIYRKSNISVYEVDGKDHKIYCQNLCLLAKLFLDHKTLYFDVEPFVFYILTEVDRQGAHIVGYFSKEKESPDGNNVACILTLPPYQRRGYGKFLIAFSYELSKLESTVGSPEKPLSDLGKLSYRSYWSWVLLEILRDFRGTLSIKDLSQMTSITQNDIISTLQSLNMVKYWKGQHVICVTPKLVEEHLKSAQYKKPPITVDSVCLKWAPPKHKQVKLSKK

[1] = KD, BROMOscan Gene Symbol BRDT(2)
[2] = KD (BROMOscan), sheet prints no unit (nM)
[3] = KD, BROMOscan Gene Symbol ATAD2B
[4] = 1µM, read-out: HATs Activity (%)
[5] = 10µM, read-out: HATs Activity (%)

Question: For CCCOc1ccn2c(C(C)=O)cc(-c3ccccc3S(C)(=O)=O)c2c1 [GSK2801], which Kd (BRD4(2)) is on record?
Answer: 29 µM

Question: What about the Kd (BRDT(2); [1]) of the same compound?
Answer: 67 µM

Question: What about the Kd (TRIM24; KD, BROMOscan Gene Symbol TRIM24(Bromo.)) of the same compound?
Answer: 24 µM

Question: And the Kd (BRD9; KD, BROMOscan Gene Symbol BRD9)?
Answer: 0.12 µM

Question: And the Kd (BRPF1; KD, BROMOscan Gene Symbol BRPF1)?
Answer: 14 µM

Question: And the Kd (TAF1(2))?
Answer: 1.4 µM

Question: What about the Kd (CECR2; KD, BROMOscan Gene Symbol CECR2) of the same compound?
Answer: 9 µM

Question: What about the Kd (PBRM1(2); [2]) of the same compound?
Answer: > 30000 nM

Question: What about the Kd (PBRM1(2); KD, BROMOscan Gene Symbol PBRM1(2)) of the same compound?
Answer: > 100000 nM

Question: And the Kd (ATAD2B; [2])?
Answer: > 30000 nM

Question: What about the Kd (ATAD2B; [3]) of the same compound?
Answer: > 100000 nM

Question: What about the Kd (CREBBP; KD, BROMOscan Gene Symbol CREBBP) of the same compound?
Answer: 21 µM

Question: What about the Kd (BRPF3; KD, BROMOscan Gene Symbol BRPF3) of the same compound?
Answer: 15 µM

Question: And the Kd (BRD4(fl))?
Answer: 41 µM

Question: Which results are given for CCC(=O)N1CCOc2c(cc(-c3ccc(OC)c(OC)c3)cc2OCC2CCCN(C)C2)C1 (stereo not drawn) [I-CBP112]?
Answer: activity at 1 µM (MYST3; [4]): 98%; activity at 10 µM (MYST3; [5]): 99%; activity at 1 µM (HAT1; [4]): 100%; activity at 10 µM (HAT1; [5]): 94%; Kd (BRD4(2)): 16 µM; Kd (BRDT(2); [1]): 49 µM; activity at 1 µM (GCN5L2; [4]): 105%; activity at 10 µM (GCN5L2; [5]): 102%; Kd (TRIM24; KD, TRIM24(Bromo.)): 12 µM; activity at 1 µM (EP300; [4]): 97%; activity at 10 µM (EP300; [5]): 99%; Kd (BRD9; KD, BROMOscan Gene Symbol BRD9): 25 µM; activity at 1 µM (MYST1; [4]): 98%; activity at 10 µM (MYST1; [5]): 103%; Kd (BRPF1; KD, BRPF1): 20 µM; Kd (TAF1(2)): 45 µM; Kd (CECR2; KD, CECR2): 17 µM; Kd (PBRM1(2); [2]): > 30000 nM; Kd (PBRM1(2); KD, PBRM1(2)): > 100000 nM; Kd (ATAD2B; [3]): 71000 nM; Kd (CREBBP; KD, CREBBP): 0.06 µM; Kd (BRPF3; KD, BRPF3): 95 µM; Kd (BRD4(fl)): 2.85 µM

Question: Which “HATs Activity (%)” value (MYST3; 1µM) does the source give for Cc1cc(=O)n(C)c2cc(N3C(=O)CC[C@H](NS(=O)(=O)CC(C)C)[C@H]3c3ccc(Cl)cc3)ccc12 [LP-99] here?
Answer: 96%

Question: And the “HATs Activity (%)” value (MYST3; 10µM)?
Answer: 100%

Question: And the “HATs Activity (%)” value (HAT1; 1µM)?
Answer: 104%

Question: And the “HATs Activity (%)” value (HAT1; 10µM)?
Answer: 95%

Question: What about the Kd (BRD4(2); BROMOscan, BRD4(2)) of the same compound?
Answer: 25 µM

Question: What about the Kd (BRDT(2); BROMOscan, BRDT(2)) of the same compound?
Answer: 33 µM

Question: What about the “HATs Activity (%)” value (GCN5L2; 1µM) of the same compound?
Answer: 92%

Question: What about the “HATs Activity (%)” value (GCN5L2; 10µM) of the same compound?
Answer: 89%

Question: What about the Kd (TRIM24; BROMOscan, TRIM24(Bromo.)) of the same compound?
Answer: > 50 µM

Question: And the “HATs Activity (%)” value (EP300; 1µM)?
Answer: 99%

Question: What about the “HATs Activity (%)” value (EP300; 10µM) of the same compound?
Answer: 98%

Question: And the “HATs Activity (%)” value (MYST1; 1µM)?
Answer: 90%

Question: And the “HATs Activity (%)” value (MYST1; 10µM)?
Answer: 88%

Question: And the Kd (BRPF1; BROMOscan, BRPF1)?
Answer: 43 µM

Question: And the Kd (TAF1(2); BROMOscan, TAF1(2))?
Answer: > 50 µM

Question: And the Kd (CECR2; BROMOscan, CECR2)?
Answer: > 50 µM

Question: What about the Kd (PBRM1(2); BROMOscan, PBRM1(2)) of the same compound?
Answer: > 50000 nM

Question: And the Kd (ATAD2B; ATAD2B)?
Answer: > 50000 nM

Question: And the Kd (CREBBP; BROMOscan, CREBBP)?
Answer: > 50 µM

Question: And the Kd (BRPF3; BROMOscan, BRPF3)?
Answer: > 50 µM

Question: And the Kd (BRD4(fl); BROMOscan, BRD4(full-length,short-iso.))?
Answer: > 50 µM

Question: How did the Kd (BRD4(2); BRD4(2)) turn out when COc1cc(C#N)ccc1S(=O)(=O)Nc1ccc2c(c1)cc(C)c(=O)n2C [NI 57] was run?
Answer: > 50 µM

Question: What about the Kd (BRDT(2); BRDT(2)) of the same compound?
Answer: > 50 µM

Question: What about the Kd (TRIM24; TRIM24(Bromo.)) of the same compound?
Answer: 1.6 µM

Question: And the Kd (BRD9; BRD9)?
Answer: 0.16 µM

Question: What about the Kd (BRPF1; BRPF1) of the same compound?
Answer: 0.004 µM

Question: What about the Kd (TAF1(2); TAF1(2)) of the same compound?
Answer: 4.9 µM

Question: And the Kd (CECR2; CECR2)?
Answer: 12 µM

Question: And the Kd (PBRM1(2); PBRM1(2))?
Answer: > 50000 nM

Question: And the Kd (ATAD2B; ATAD2B)?
Answer: > 50000 nM

Question: And the Kd (CREBBP; CREBBP)?
Answer: 13 µM

Question: And the Kd (BRD4(fl); BRD4(full-length,short-iso.))?
Answer: 4.9 µM
